Measurements taken from PMC3404744 (Molecular Pharmaceutics, 2011).

Tests used:
[1] = system: 12 recombinant human UGT isoforms; assay: Phenotyping using 12 recombinant UGTs; type: in vitro ADME; conditions: by CLint
UGT1A1 [2] = molecular target: T1, UGT1A1 (Homo sapiens, UniProt P22309); assay: Glucuronidation kinetics with recombinant human UGT1A1; type: in vitro ADME; conditions: for Glucuronide isomers formed by UGT1A1: recombinant UGT1A1
T1 sequence (P22309 26-533): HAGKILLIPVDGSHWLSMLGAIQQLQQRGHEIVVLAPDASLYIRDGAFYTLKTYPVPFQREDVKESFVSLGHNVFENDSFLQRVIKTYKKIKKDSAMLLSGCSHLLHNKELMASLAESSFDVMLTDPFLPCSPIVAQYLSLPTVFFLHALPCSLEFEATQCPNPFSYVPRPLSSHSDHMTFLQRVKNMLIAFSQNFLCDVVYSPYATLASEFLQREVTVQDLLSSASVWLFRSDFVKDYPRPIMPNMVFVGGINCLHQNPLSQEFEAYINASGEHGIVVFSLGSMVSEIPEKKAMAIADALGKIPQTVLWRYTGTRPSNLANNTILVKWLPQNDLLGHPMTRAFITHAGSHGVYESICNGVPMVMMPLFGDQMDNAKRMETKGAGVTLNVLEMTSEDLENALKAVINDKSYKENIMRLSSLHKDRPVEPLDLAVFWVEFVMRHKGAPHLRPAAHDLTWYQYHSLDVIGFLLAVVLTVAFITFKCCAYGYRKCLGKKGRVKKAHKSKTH

[3] = system: pooled human liver microsomes (pHLM); assay: Glucuronidation kinetic profile in pooled human liver microsomes; type: in vitro ADME; conditions: flavonoids 4′-O-glucuronidation, SN-38 glucuronidation
UGT1A9 = molecular target: T2, UGT1A9 (Homo sapiens, UniProt O60656); assay: Glucuronidation kinetics with recombinant human UGT1A9; type: in vitro ADME; conditions: 10 μM
T2 sequence (O60656 26-530): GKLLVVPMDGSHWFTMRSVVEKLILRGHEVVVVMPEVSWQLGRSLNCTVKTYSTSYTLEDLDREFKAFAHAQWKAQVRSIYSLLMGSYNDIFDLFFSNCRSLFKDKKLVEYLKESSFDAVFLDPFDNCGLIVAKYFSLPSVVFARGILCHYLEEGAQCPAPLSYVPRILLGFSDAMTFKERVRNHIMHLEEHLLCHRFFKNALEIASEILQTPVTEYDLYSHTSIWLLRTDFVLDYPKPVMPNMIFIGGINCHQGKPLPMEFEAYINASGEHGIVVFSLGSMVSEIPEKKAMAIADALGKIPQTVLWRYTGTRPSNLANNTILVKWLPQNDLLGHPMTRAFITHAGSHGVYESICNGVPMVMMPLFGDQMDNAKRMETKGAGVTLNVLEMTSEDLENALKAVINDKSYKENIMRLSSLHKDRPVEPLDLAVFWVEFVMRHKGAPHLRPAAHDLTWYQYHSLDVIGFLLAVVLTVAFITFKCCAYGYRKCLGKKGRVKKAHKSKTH

[4] = after a standard therapy; cited from earlier work
UGT1A1 [5] = molecular target: T1, UGT1A1; type: in vitro ADME

SMILES	Main isoforms glucuronidating the flavonoid [1]	Km for recombinant UGT1A1 (4′-O-glucuronidation) compared with pooled HLM (UGT1A1 [2])	Glucuronide isomers formed by UGT1A1 (UGT1A1 [2])	Pattern of kinetic profile [3]	UGT1A9 activity, folds less than that of UGT1A1 (UGT1A9) [folds]	In vivo concentration [4] [µM]	Glucuronidation in pHLM correlated with UGT1A1 activities (RAF approach) (UGT1A1 [5]) [%]
O=c1c(O)c(-c2ccc(O)c(O)c2)oc2ccccc12 [33′4′THF, 3,3′,4′-trihydroxyflavone]	UGT1A1, 1A7 and 1A9	essentially identical	3′-O- and 4′-O-glucuronide	substrate inhibition			
O=c1c(O)c(-c2ccc(O)cc2)oc2ccc(O)cc12 [364′THF, 3,6,4′-trihydroxyflavone]	UGT1A1, 1A7 and 1A9	essentially identical	3-O-, 6-O-, and 4′-O-glucuronide	substrate inhibition			
CCc1c2c(nc3ccc(O)cc13)-c1cc3c(c(=O)n1C2)COC(=O)[C@]3(O)CC [SN-38, 7-ethyl-10-hydroxycamptothecin]				substrate inhibition	~5	< 0.1	103 ± 8
